Measured values: PMC4564171 (PLoS ONE, 2015)
“Also recorded” adds a separate entry of the source. Read-outs that look alike come from different tables or passages of the source.

Assays:
[1] = target: T1, MalE-VirF binding to the pvirB DNA probe (Shigella flexneri, UniProt P0A2T1); experiment: Fluorescence polarization (FP) assay, inhibition of MalE-VirF binding to the pvirB DNA probe
T1 construct: pMALvirF was constructed by cloning the virF gene into the vector, pMAL-c2x; made in house; host or cells: Shigella flexneri BS103 (pBAD202-MALvirF); initial preparations in E. coli KS1000 (pMALvirF)
T1 sequence (P0A2T1 whole entry, looked up): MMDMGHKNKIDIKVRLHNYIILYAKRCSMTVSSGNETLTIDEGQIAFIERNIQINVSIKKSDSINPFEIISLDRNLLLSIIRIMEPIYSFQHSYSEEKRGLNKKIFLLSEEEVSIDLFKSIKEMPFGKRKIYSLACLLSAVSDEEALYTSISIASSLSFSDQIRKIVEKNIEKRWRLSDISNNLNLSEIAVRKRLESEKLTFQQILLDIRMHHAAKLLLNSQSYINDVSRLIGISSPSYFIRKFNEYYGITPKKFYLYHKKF
Protocol: The FP assays were conducted in duplicate in black, half-area, 96-well plates (Corning, Twerksbury, MA). First, 30 μL of 5’-Fluoroscein-pvirB DNA probe working standard was added to appropriate wells of the microplate. The pvirB DNA working standard was in TE/NaCl buffer (see above) supplemented with BSA (0.07 mg/mL) and salmon sperm DNA (0.7 mg/mL). Next, 30 μL of varying concentrations of MalE-VirF in amylose resin elution buffer (see above) was added to appropriate wells of the microplate. The final concentration of pvirB DNA was either 50 nM (for test wells) or none (for blank wells) and the final concentrations of MalE-VirF ranged from 45 μM to 0.12 μM (for test wells) or none (for control wells). For each concentration of MalE-VirF tested, a blank well was also set up that included all reagents except pvirB DNA. The microplate was then incubated for 20 minutes at 37°C and anisotropy was determined using a SpectraMax M5 plate reader (Molecular Devices, Sunnyvale, CA). Data was acquired using an excitation wavelength equal to 490 nm and an emission wavelength equal to 520 nm. To determine anisotropy the following equation was used: Anisotropy=F∥-G^*F⊥/F∥+2^*G^*F⊥^*1000 where: Fǁ = fluorescence intensity parallel to excitation source after blanking, F┴ = fluorescence intensity perpendicular to excitation source after blanking, and G = G-factor (correction for polarization bias of the detection system). After anisotropy was determined, data were plotted using GraphPad Prism (La Jolla, Ca) and fit to the following equation: […] where Y = specific binding, KD = dissociation constant, BMAX = maximum binding, X = MalE-VirF concentration, and b = y-intercept.
The FP protocol listed above was adapted to determine the IC50 of the small molecule hit compounds. Compounds (ranging from 200 μM to 3.1 μM) or DMSO for controls (1% final concentration) were added to the pvirB DNA probe working standard prior to addition to the microplates. For IC50 determination, the MalE-VirF and pvirB DNA probe concentrations were held constant at 20 μM and 50 nM, respectively. Positive controls were established to determine 100% VirF inhibition (no MalE-VirF present, 50 nM pvirB DNA probe) and negative controls were set up to determine no VirF inhibition (1% DMSO, 20 μM MalE-VirF, and 50 nM pvirB DNA probe). Once again blanks were set up to include all reagents, except pvirB DNA probe. All reactions were run in duplicate. Anisotropy was calculated as listed above and data were plotted using GraphPad Prism then fit to the following equation: Y=Bottom+(Top-Bottom)/(1+10^(X-logIC50)) where: Y = anisotropy, X = log of compound concentration (M), Top and Bottom = plateaus in anisotropy units, and LogIC50 = log of the concentration that inhibits 50% of VirF binding. In the presence of the compounds (no VirF), a small increase (~6%) in the DNA anisotropy was observed.
The FP protocol used for IC50 determination was adapted to test a library of small molecule inhibitors of VirF. All steps were identical to the above protocol except compounds were tested at only 100 μM final concentration and positive control samples included 100 μM of compound. Once again blanks were set up to include all reagents, except pvirB DNA probe, and all reactions were run in duplicate. Anisotropy was calculated as listed above, and %inhibition was calculated as follows: %inhibition=rneg-rtest/rneg^*100 where: rneg = average anisotropy for negative controls and rtest = average anisotropy in presence of compound. Note: All rneg and rtest values were normalized to positive control values.

[2] = target: T2, MalE-VirF binding to the 5'Cy5-pvirB DNA probe (Shigella flexneri, UniProt P0A2T1); experiment: Electrophoretic mobility shift assay (EMSA) of MalE-VirF binding to pvirB DNA probe; settings: compound 100 μM; MalE-VirF 1 μM; probe 0.25 μM
T2 construct: pMALvirF was constructed by cloning the virF gene into the vector, pMAL-c2x; made in house; host or cells: Shigella flexneri BS103 (pBAD202-MALvirF); initial preparations in E. coli KS1000 (pMALvirF)
T2 sequence (P0A2T1 whole entry, looked up): as above
Protocol: Reactions for the EMSAs were incubated in a 37°C water bath for 15 minutes. Reactions (15 μL total volume) were composed of 6 μL pvirB EMSA DNA probe (0.25 μM), 6 μL of either MalE-VirF (1.0 μM) or native gel loading buffer (Tris-HCl 0.3 M, 50% glycerol, 0.05% bromophenol blue, pH 7.0), 1 μL of salmon sperm DNA (0.7 mg/mL, Invitrogen), 0.5 μL BSA (0.07 mg/mL), and 1.5 μL of either DMSO or compound (100 μM). A 6% native polyacrylamide gel (29:1 acrylamide to bis-acrylamide ratio) was made with 0.25X TBE buffer (22 mM Tris Base, 22 mM boric acid, 0.5 mM EDTA, pH 9.5) for the EMSA. The gel was electrophoresed for 1 hour at 150 V in 0.25X TBE buffer at 4°C before samples were loaded. After the reaction solutions (12 μL) were loaded onto the gel, the gel was electrophoresed for an additional hour at 150 V and 4°C. The gel was then visualized using FluorChem M gel imager (Protein Simple, Santa Clara, CA) with a 607 nm excitation wavelength and a 710 nm emission filter.

[3] = system: E. coli RNA polymerase (RNAP) binding to the lac promoter (plac); experiment: Control EMSA of E. coli RNA polymerase binding to the lac promoter; settings: compound 100 μM; RNAP 2.7 μM; 5'Cy5-plac probe 0.25 μM
Chain of E. coli RNA polymerase (RNAP) binding to the lac promoter (plac) (P0A7Z4 whole entry): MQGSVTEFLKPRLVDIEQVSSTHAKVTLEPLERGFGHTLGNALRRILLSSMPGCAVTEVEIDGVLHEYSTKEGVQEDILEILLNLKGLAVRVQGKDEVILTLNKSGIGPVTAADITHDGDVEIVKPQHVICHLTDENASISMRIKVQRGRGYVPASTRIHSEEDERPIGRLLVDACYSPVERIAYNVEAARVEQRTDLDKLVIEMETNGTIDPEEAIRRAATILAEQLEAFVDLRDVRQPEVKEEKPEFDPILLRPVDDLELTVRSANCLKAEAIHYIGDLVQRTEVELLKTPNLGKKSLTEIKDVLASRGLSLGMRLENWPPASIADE
Chain of E. coli RNA polymerase (RNAP) binding to the lac promoter (plac) (P0A800 whole entry, further chain): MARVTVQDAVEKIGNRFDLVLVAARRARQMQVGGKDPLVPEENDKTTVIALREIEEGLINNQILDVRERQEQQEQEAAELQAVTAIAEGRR
Chain of E. coli RNA polymerase (RNAP) binding to the lac promoter (plac) (P0A8T7 whole entry, further chain): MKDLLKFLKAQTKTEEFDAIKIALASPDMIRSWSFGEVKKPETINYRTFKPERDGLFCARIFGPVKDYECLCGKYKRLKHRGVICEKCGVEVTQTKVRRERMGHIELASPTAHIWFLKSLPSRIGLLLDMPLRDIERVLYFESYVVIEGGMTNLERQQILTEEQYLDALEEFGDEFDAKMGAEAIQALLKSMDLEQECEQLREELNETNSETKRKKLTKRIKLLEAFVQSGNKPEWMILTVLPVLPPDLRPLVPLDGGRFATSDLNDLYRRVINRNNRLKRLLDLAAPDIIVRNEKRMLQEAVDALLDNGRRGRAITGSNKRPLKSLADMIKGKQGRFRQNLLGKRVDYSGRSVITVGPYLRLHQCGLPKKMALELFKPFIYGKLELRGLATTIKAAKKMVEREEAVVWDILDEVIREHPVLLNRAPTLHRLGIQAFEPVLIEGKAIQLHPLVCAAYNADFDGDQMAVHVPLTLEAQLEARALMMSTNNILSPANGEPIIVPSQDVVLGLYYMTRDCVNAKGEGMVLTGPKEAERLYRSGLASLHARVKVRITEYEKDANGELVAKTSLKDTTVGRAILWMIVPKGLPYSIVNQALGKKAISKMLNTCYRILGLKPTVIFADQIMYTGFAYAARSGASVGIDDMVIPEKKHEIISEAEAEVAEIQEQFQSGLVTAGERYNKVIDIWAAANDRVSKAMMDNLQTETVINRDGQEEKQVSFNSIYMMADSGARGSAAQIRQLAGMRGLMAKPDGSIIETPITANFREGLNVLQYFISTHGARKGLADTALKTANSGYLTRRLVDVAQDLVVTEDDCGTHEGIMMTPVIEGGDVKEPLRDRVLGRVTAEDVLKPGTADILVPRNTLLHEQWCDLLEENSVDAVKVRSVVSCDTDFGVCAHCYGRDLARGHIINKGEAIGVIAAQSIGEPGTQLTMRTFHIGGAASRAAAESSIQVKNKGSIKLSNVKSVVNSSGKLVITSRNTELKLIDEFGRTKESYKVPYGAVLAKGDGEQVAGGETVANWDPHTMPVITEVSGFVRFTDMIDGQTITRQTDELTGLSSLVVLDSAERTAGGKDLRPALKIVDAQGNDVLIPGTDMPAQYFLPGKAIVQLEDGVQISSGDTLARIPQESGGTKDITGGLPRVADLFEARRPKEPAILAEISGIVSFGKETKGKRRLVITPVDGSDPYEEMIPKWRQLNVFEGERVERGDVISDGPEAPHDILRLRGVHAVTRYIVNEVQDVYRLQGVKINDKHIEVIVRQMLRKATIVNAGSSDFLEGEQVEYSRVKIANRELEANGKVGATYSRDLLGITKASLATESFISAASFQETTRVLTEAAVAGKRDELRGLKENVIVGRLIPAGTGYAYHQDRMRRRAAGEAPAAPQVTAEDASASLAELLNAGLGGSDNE
Chain of E. coli RNA polymerase (RNAP) binding to the lac promoter (plac) (P00579 whole entry, further chain): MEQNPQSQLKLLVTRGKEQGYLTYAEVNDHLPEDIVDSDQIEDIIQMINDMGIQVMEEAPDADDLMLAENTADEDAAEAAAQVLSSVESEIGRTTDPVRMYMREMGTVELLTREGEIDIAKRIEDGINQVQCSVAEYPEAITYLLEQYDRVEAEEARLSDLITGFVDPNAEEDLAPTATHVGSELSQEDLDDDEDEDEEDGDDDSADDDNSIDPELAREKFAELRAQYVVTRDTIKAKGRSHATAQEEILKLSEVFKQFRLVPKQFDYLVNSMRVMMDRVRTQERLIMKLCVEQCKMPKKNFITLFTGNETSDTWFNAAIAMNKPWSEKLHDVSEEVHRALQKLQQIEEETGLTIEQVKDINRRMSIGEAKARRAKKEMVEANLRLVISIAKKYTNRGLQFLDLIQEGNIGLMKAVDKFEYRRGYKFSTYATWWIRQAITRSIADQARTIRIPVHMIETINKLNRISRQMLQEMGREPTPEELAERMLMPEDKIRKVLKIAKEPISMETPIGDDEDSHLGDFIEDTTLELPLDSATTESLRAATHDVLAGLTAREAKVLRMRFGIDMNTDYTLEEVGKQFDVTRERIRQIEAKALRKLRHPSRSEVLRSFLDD
Chain of E. coli RNA polymerase (RNAP) binding to the lac promoter (plac) (P0A8V2 whole entry, further chain): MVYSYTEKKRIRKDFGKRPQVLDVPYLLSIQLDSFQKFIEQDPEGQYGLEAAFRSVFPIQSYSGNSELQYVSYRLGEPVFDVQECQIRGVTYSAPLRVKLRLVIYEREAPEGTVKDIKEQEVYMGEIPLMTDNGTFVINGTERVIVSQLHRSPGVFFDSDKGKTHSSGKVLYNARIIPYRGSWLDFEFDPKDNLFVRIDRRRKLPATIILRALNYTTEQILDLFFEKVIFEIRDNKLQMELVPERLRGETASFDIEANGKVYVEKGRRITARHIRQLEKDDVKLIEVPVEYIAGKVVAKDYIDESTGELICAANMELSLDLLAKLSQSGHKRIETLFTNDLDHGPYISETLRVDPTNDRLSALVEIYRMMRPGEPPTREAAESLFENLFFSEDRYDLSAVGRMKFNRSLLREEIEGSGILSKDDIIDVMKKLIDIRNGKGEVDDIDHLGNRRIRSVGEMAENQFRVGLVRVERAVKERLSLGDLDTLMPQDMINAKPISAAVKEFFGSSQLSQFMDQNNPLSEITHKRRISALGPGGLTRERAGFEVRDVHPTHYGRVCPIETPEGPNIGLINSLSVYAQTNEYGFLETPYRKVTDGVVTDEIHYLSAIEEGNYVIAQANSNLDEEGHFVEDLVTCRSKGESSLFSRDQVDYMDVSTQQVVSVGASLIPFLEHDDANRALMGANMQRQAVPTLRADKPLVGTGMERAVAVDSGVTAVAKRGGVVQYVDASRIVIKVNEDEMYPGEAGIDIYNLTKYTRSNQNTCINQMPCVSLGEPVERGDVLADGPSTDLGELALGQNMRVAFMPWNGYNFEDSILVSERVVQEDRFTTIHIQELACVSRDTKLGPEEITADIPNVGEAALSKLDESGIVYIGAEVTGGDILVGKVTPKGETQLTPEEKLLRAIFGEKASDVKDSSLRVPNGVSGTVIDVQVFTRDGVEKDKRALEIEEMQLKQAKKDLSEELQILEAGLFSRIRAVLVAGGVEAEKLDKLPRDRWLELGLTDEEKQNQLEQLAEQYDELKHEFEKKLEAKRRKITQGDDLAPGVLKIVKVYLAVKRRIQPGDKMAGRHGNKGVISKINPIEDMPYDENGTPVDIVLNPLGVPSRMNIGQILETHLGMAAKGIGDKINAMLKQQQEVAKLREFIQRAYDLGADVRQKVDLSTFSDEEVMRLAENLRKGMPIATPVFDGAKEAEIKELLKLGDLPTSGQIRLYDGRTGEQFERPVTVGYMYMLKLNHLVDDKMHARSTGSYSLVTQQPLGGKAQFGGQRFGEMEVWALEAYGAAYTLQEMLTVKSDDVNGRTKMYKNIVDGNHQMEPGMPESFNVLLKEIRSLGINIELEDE
Protocol: [picture] Figure C: EMSA depicting E. coli RNA Polymerase (RNAP) Binding to the lac Promoter (plac) in the Presence of 19615. […] For the EMSA a hybrid 2% acrylamide, 1% agarose gel was used which was made with and ran in a 1X TGE buffer (25 mM Tris base, 190 mM glycine, 1 mM EDTA, pH 8.3). The sequence of the 5’Cy5-plac DNA probe is as follows: 5’-gtgccctggtctgg[…]-3’ (lowercase text represents LUEGO sequence, uppercase text represents lac promoter sequence).

[4] = system: VirF-driven transcriptional activation; design: method as in PMID 24549153; settings: VirF-driven β-galactosidase reporter; read-out: Shigella-Based Reporter Assay IC50; cited from earlier work
[5] = system: spread of an active S. flexneri infection; settings: cited from earlier work
[6] = system: mammalian cells; design: method as in PMID 24549153; settings: at the tested concentrations; cited from earlier work
[7] = system: S. flexneri; design: method as in PMID 24549153; settings: at the tested concentrations; cited from earlier work

Structure (SMILES): CN(C)CCOc1nc(-c2ccccc2)nc2c1oc1ccccc12 [compound 19615]
- IC50 [1]: 46 ± 2.2 µM
- Ki [1]: 5.6 µM
- inhibition at 100 µM ([1]; read-out: % Inhibition at 100 μM): 63%
- Effect on MalE-VirF binding to the pvirB DNA probe (EMSA) [2]: appeared to inhibit MalE-VirF binding; also recorded: dramatically reduced binding
- Effect on RNAP binding to the lac promoter (EMSA) [3]: no effect on RNAP binding
- IC50 [4]: 14 µM
- Inhibition of the spread of an active S. flexneri infection ([5]; at 6.25 μM): 75%
- Inhibition of the spread of an active S. flexneri infection ([5]; at concentrations at or below their IC50s in the reporter assay): approximately 75%
- Plaque Efficiency Assay IC75 ([5]; ref Emanuele et al. J. Antibiotics 67:379–386 (2014)): 6.25 µM
- Toxicity to mammalian cells [6]: not toxic
- Toxicity to S. flexneri [7]: not toxic
